Like-named read-outs stand apart in the source and are kept apart here.
Columns and labels:
mTOR = mTOR (Homo sapiens, UniProt P42345); test: mTOR kinase activity assay (K-LISA mTOR Activity Kit); assay type: biochemical; details: means ± SD (n = 3)
Protocol: (§1) PI3K enzyme-linked immunosorbent assays (ELISAs) were performed using the PI3Kinase Activity/Inhibitor Assay Kit (Millipore, Bedford, MA, USA) according to the manufacturer's instructions as described previously. mTOR kinase activity was assayed using the K-LISA mTOR Activity Kit (Calbiochem, Bedford, MA, USA) according to the manufacturer's instructions.

PI3Kα = PI3Kα (Homo sapiens, UniProt P42336); test: PI3K ELISA (PI3Kinase Activity/Inhibitor Assay Kit); assay type: biochemical; details: PI3Kα (p110α); means ± SD (n = 3)
PI3Kα, sequence (P42336 whole entry): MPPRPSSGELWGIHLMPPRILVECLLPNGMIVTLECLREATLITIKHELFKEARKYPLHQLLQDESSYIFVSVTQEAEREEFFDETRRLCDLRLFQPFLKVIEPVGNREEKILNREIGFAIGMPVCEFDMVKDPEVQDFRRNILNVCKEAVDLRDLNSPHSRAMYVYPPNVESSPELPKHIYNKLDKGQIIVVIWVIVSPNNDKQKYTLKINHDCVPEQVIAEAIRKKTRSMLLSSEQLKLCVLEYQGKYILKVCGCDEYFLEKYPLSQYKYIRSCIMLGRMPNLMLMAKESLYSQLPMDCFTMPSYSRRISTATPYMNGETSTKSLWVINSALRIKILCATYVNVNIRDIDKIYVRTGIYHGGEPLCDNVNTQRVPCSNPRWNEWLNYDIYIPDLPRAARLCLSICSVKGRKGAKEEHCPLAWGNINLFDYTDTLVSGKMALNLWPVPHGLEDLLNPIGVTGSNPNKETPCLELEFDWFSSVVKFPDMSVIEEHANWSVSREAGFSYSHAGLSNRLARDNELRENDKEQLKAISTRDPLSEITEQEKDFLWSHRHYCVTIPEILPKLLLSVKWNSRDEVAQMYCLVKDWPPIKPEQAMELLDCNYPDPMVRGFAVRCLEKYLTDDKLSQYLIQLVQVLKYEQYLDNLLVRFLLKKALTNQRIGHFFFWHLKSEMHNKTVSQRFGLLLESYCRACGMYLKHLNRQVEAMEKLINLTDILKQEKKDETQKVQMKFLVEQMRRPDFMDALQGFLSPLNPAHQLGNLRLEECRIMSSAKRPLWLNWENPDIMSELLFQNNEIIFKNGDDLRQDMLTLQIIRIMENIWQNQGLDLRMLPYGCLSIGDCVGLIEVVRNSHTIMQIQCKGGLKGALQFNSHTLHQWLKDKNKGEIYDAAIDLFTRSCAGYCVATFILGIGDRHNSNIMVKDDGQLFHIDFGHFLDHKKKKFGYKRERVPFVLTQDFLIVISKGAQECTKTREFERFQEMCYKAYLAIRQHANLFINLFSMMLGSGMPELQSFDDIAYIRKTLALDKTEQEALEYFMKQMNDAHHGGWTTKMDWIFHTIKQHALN
PI3Kα, sequence (P27986 whole entry partner): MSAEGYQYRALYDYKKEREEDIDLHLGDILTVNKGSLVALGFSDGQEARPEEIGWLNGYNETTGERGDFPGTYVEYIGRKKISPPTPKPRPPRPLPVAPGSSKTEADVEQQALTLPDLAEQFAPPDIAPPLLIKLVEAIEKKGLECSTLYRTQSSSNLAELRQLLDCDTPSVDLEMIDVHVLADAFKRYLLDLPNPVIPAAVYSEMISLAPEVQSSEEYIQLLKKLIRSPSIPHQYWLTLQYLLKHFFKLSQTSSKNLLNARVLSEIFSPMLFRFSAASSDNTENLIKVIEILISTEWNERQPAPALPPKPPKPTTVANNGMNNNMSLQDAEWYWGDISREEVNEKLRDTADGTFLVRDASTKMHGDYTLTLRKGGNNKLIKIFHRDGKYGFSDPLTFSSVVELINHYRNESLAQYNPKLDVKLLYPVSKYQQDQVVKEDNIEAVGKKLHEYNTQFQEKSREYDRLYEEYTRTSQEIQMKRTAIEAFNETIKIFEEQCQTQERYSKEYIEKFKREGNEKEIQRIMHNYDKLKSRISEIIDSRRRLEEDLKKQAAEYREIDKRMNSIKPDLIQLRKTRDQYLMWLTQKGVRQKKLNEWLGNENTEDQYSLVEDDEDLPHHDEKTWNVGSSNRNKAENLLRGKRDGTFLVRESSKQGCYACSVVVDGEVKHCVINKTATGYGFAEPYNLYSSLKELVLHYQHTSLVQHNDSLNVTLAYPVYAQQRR
Protocol: as §1

PI3Kβ = PI3Kβ (Homo sapiens, UniProt P42338); test: as above; assay type: biochemical; details: PI3Kβ (p110β); means ± SD (n = 3)
PI3Kβ, sequence (P42338 whole entry): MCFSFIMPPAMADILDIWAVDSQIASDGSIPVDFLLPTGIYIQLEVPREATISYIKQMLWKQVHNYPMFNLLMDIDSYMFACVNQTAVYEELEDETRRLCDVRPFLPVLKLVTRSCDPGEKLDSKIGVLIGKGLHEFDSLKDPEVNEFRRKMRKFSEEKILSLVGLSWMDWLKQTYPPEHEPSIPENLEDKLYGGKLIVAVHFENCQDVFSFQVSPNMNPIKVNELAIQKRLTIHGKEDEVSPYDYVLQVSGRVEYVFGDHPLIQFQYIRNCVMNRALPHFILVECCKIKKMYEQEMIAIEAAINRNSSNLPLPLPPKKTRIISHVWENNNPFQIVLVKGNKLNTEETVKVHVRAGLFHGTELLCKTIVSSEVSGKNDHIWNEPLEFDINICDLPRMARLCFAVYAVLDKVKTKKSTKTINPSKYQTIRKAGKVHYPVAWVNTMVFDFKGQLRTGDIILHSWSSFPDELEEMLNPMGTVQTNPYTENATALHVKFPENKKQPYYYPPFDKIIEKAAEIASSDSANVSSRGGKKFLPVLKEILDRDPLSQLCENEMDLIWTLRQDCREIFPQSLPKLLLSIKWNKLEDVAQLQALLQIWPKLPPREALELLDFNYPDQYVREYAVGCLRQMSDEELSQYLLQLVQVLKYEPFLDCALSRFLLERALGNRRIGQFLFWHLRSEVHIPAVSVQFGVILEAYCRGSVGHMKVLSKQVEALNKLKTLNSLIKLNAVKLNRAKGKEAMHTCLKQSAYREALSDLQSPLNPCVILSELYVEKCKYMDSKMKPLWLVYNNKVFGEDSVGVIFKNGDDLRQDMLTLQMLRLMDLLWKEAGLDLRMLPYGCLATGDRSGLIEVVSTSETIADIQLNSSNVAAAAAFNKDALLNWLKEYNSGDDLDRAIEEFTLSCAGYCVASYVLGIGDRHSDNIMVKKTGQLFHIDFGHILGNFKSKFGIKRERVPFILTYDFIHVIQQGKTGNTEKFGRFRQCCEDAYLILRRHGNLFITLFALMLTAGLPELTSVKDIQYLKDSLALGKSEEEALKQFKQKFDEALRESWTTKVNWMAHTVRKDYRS
PI3Kβ, sequence (P27986 whole entry partner): as the sequence (P27986 whole entry partner) above
Protocol: as §1

PI3Kγ = PI3Kγ (Homo sapiens, UniProt P48736); test: as above; assay type: biochemical; details: PI3Kγ (p110γ); means ± SD (n = 3)
PI3Kγ, sequence (P48736 whole entry): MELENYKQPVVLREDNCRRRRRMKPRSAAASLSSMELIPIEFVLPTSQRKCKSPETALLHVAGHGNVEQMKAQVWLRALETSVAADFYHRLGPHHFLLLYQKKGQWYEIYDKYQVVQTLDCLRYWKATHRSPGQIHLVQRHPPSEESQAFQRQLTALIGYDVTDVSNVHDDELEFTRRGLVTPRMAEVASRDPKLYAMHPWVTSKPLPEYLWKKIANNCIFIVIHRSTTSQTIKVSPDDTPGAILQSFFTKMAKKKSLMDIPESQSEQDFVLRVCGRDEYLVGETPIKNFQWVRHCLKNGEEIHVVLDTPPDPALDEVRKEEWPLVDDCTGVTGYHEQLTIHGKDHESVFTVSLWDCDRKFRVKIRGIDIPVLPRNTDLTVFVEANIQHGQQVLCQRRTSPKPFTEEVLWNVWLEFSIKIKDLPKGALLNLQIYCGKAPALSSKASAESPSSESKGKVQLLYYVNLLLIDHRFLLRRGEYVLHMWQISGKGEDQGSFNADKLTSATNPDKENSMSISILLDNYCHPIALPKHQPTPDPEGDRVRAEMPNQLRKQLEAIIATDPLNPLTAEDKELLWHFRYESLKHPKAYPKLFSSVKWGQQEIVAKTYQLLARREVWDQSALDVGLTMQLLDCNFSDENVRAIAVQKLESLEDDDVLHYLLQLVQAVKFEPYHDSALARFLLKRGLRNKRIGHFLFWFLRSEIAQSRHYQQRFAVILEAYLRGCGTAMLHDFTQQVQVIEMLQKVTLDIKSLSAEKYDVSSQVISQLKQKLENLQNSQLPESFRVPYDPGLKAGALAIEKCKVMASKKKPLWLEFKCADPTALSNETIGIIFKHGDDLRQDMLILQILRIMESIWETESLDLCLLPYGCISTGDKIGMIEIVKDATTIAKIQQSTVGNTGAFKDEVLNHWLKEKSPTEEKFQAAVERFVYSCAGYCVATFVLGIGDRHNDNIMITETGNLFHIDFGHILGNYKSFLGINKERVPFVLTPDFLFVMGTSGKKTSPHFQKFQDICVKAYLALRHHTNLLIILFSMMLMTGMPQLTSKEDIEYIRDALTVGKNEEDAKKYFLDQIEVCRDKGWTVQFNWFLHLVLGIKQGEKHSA
Protocol: as §1

PI3Kδ = PI3Kδ (Homo sapiens, UniProt O00329); test: as above; assay type: biochemical; details: PI3Kδ (p110δ); means ± SD (n = 3)
PI3Kδ, sequence (O00329 whole entry): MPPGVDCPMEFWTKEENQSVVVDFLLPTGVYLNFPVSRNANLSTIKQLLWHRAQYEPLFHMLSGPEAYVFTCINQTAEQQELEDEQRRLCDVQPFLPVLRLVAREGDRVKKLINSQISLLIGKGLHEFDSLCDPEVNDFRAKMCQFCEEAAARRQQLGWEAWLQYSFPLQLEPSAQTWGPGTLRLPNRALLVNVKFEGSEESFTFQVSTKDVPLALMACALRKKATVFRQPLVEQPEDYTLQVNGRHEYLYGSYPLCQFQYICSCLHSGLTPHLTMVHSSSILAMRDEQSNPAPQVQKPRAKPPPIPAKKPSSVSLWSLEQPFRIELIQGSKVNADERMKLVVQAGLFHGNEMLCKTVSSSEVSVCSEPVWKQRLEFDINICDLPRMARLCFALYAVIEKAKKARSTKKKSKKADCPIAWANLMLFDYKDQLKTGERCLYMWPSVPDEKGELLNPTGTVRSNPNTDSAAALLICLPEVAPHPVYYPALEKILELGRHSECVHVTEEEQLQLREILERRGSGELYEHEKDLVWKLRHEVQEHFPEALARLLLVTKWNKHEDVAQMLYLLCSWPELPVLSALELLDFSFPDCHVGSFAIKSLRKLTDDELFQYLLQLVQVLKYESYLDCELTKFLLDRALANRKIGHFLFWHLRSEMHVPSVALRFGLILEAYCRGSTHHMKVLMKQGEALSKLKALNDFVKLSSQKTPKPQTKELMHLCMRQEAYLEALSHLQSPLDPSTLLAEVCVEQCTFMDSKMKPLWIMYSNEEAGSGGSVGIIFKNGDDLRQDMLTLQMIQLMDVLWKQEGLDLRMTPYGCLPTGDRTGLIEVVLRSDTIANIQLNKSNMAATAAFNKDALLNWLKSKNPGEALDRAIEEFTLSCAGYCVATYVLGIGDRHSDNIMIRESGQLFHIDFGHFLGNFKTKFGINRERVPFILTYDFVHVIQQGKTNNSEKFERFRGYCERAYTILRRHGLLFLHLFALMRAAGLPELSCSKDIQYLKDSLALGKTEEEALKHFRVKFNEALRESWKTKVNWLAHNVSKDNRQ
PI3Kδ, sequence (P27986 whole entry partner): as the sequence (P27986 whole entry partner) above
Protocol: as §1

[1] = tested on: panel of human tumor cell lines; test: Cell proliferation assay (SRB), panel of human tumor cell lines; assay type: cell-based; details: 72 h
Protocol: (§2) The following human tumor cell lines were obtained from the American Type Culture Collection (Manassas, VA, USA): breast tumor cell lines, MDA-MB-231, MDA-MB-435, MDA-MB-468, BT-474 and MCF7; lung tumor cell lines, A549 and Calu-3; ovarian tumor cell lines, SK-OV-3 and OVCAR3; colon tumor cell lines, SW620 and COLO205; glioma cell line, U-87MG; prostate tumor cell line, PC-3; and melanoma cell line, A375. All cell lines were cultured according to instructions provided by the American Type Culture Collection. The ovarian tumor cell line A2780 was obtained from the National Cancer Institute (Bethesda, MD, USA) and cultured according to the instructions provided. The dabrafenib- and trametinib-resistant A375 cell lines, A375/DR and A375/TR, respectively, were established by culturing parental cells in medium containing gradually increasing concentrations of dabrafenib (0.1–5,000 nM) or trametinib (0.05–50 nM) over the course of 12 months. […] All the cells have been tested and authenticated by Genesky Biotechnologies. Inc. (Shanghai, China) using fluorescent amplified restriction fragment polymorphism (FAFLP) method.
(§3) Tumor cells were seeded in 96-well plates and treated with serial dilutions of drugs alone or as a combination of two drugs. After a 72-h incubation, cell proliferation was evaluated by sulforhodamine B (SRB; Sigma) assay. […] The CI value which defines the interaction between two drugs as synergistic (CI < 0.95), additive (CI = 0.95–1.05) or antagonistic (CI > 1.05), was determined on the basis of the median-effect principle using CalcuSyn software.

A375 cells = test: Cell proliferation assay (SRB); assay type: cell-based; details: Homo sapiens, A-375, 72 h
Protocol: The following human tumor cell lines were obtained from the American Type Culture Collection (Manassas, VA, USA): breast tumor cell lines, MDA-MB-231, MDA-MB-435, MDA-MB-468, BT-474 and MCF7; lung tumor cell lines, A549 and Calu-3; ovarian tumor cell lines, SK-OV-3 and OVCAR3; colon tumor cell lines, SW620 and COLO205; glioma cell line, U-87MG; prostate tumor cell line, PC-3; and melanoma cell line, A375. All cell lines were cultured according to instructions provided by the American Type Culture Collection. The ovarian tumor cell line A2780 was obtained from the National Cancer Institute (Bethesda, MD, USA) and cultured according to the instructions provided. The dabrafenib- and trametinib-resistant A375 cell lines, A375/DR and A375/TR, respectively, were established by culturing parental cells in medium containing gradually increasing concentrations of dabrafenib (0.1–5,000 nM) or trametinib (0.05–50 nM) over the course of 12 months. […]
as §3

[2] = tested on: A375/DR (dabrafenib-resistant) cells; test: Cell proliferation assay (SRB); assay type: cell-based, human; details: for resistance factor (RF): A375/DR versus parental A375
Protocol: as §2, §3

[3] = tested on: A375/TR (trametinib-resistant) cells; test: Cell proliferation assay (SRB); assay type: cell-based, human; details: for resistance factor (RF): A375/TR versus parental A375
Protocol: as §2, §3

[4] = Pharmacokinetic study in U-87MG tumor-bearing mice; assay type: in vivo, Balb/cA-nude mice; details: single oral dose 10 mg/kg; for Cmax: female, Balb/cA-nude, mouse
Protocol: (§4) Female, 5–6-wk-old Balb/cA-nude mice were purchased from Shanghai Laboratory Animal Center, Chinese Academy of Sciences (Shanghai, China). […] Tumor volume was calculated as (length × width^2)/2.
Pharmacokinetic/pharmacodynamic studies were carried out as described previously. Mice bearing U-87MG tumors received a single oral dose of 10 mg/kg SHR8443 or vehicle, and tumor tissues and blood were collected at different times. Concentrations of SHR8443 in plasma and tissue were determined by HPLC/tandem mass spectrometry. Tumor samples were analyzed by Western blotting. Animal experiments were conducted in accordance with the Institutional Animal Care and Use Committee guidelines of Shanghai Institute of Materia Medica, Chinese Academy of Sciences.

BT-474 xenografts = test: Tumor xenograft growth inhibition; assay type: in vivo, Balb/cA-nude mice
Protocol: as §4

[5] = tested on: KRAS mutant A549 xenografts; test: Tumor xenograft growth inhibition; assay type: in vivo, Balb/cA-nude mice; details: 15 mg/kg oral daily
Protocol: as §4

PC-3 xenografts = test: Tumor xenograft growth inhibition; assay type: in vivo, Balb/cA-nude mice; details: 30 mg/kg oral daily, final treatment day
Protocol: as §4

U-87MG xenografts = test: Tumor xenograft growth inhibition; assay type: in vivo, Balb/cA-nude mice
Protocol: as §4

[6] = tested on: trastuzumab-resistant BT-474/trastuzumab xenografts; test: Tumor xenograft growth inhibition; assay type: in vivo, Balb/cA-nude mice
Protocol: as §4

[7] = Tolerability (deaths, body weight) in xenograft-bearing mice; assay type: in vivo, Balb/cA-nude mice; details: xenograft-bearing mice during the course of treatment
Protocol: as §4

[8] = tested on: panel of other protein kinases; test: Panel of other protein kinases; assay type: biochemical; details: 1000 nM; data not shown
[9] = tested on: PI3K/mTOR signaling (AKT, S6, ERK phosphorylation); test: Western blotting of PI3K/mTOR signaling in tumor cell lines; assay type: cell-based, human
Protocol: (§5) After drug treatment, cells were lysed in sodium dodecyl sulfate (SDS) sample buffer (100 mM Tris-HCl pH 6.8, 2% SDS, 20% glycerol, 1 mM dithiothreitol). Cell lysates containing equal amounts of protein were resolved by SDS-PAGE and transferred to polyvinylidene difluoride membranes. Blots were probed with primary antibodies, and then incubated with the appropriate secondary antibodies (Millipore). Immunoreactive bands were visualized using enhanced chemiluminescence reagents (Millipore).

[10] = tested on: MCF7, MDA-MB-468, COLO205, and A549 cell lines; test: Cell cycle distribution by flow cytometry; assay type: cell-based, human; details: 24 h treatment
Protocol: (§6) Cells were harvested and fixed in ice-cold 70% ethanol at −20°C overnight. Fixed cells were then treated with 50 μg/mL of propidium iodide and RNase A at 37°C for 30 min. The cell cycle distribution was measured using a FACScan flow cytometer (BD Biosciences, San Jose, CA, USA) and analyzed with ModFit LT Mac V3.0 software. Apoptosis was measured using a FITC Annexin V Apoptosis Detection Kit (BD Biosciences) according to the manufacturer's instructions. Fluorescence was acquired with an Accuri C6 Plus instrument (BD Biosciences).

[11] = tested on: MCF7 and MDA-MB-468 cells; test: Apoptosis by annexin V-FITC/PI staining and FACS; assay type: cell-based, human; details: 72 h
Protocol: as §6

A549 cells = test: Autophagy, LC3 immunoblotting; assay type: cell-based, human; details: 48 h
Protocol: as §5

[12] = 30 mg/kg oral daily, final treatment day

CNC(=O)Nc1ccc(-c2ccc3ncc4c(c3c2)n(-c2cccc(C(F)(F)F)c2)c(=O)n4C)cn1 [SHR8443, 1-methyl-3-(5-(3-methyl-2-oxo-1-(3-(trifluoromethyl)phenyl)-2,3-dihydro-1H–imidazo [4,5-c]quinolin-8-yl)pyridin-2-yl) urea]
IC50 (mTOR): 7.8 ± 1.1 nM | IC50 (PI3Kα): 0.1 nM | IC50 (PI3Kβ): 15.8 ± 3.8 nM | IC50 (PI3Kγ): 0.2 ± 0.2 nM | IC50 (PI3Kδ): 0.7 ± 0.2 nM | IC50 ([1]; read-out: IC50 values, proliferation, range over all tested tumor cells): 2.9 to 13.9 nM | IC50 ([1]; read-out: average (mean) IC50, proliferation, all tested tumor cells): 7.5 nM | IC50 ([1]; read-out: mean IC50 in KRAS/BRAF mutant tumor cells): 7.3 nM | IC50 (A375 cells): 4.1 nM | IC50 ([2]; Homo sapiens, A-375, A375/DR cells, 72 h, SRB assay): 3.4 nM | IC50 ([3]; Homo sapiens, A-375, A375/TR cells, 72 h, SRB assay): 4.9 nM | Cmax ([4]; plasma, read-out: Cmax in plasma): 735 ng/mL | Cmax ([4]; tumor tissue, read-out: Cmax in tumor tissue): 181 ng/g | time of Cmax (plasma and tumor tissue) [4]: 8 h | tumor regression (BT-474 xenografts; 30 mg/kg): one of six tumors | tumor growth inhibition (TGI) (BT-474 xenografts; [12]): 87% | tumor growth inhibition (TGI) [5]: 86% | tumor growth inhibition (TGI) (PC-3 xenografts): 75% | tumor regression (U-87MG xenografts; 30 mg/kg): one of six tumors | tumor growth inhibition (TGI) (U-87MG xenografts; [12]): 95% | tumor growth inhibition (TGI) ([6]; 30 mg/kg oral daily): 79% | tolerability (drug-related deaths, body weight loss) [7]: well tolerated | inhibitory activity against a panel of other protein kinases [8]: little inhibitory activity | phosphorylation of AKT and S6 ([9]; COLO205 (BRAF mutant), A549 and SW620 (KRAS mutant) cells, 3 h): significantly inhibited | level of phosphorylated ERK (pERK) ([9]; COLO205, A549, SW620 cells): No change | AKT and S6 phosphorylation ([9]; MCF7, MDA-MB-468, BT-474 breast cancer cells, 3 h): inhibited | reversibility of inhibitory activity after removal from medium ([9]; MDA-MB-468 cells, 100 nM for 2 h then drug-free medium): reversible | duration of inhibition of AKT, S6K and S6 phosphorylation ([9]; U-87MG cells, 100 nM): at least 48 h | cell cycle effect [10]: concentration-dependent G1-phase cell-cycle arrest | necrotic/apoptotic cell death [11]: concentration-dependent increase | LC3-II production (autophagy) (A549 cells): increased the production of LC3-II in a concentration-dependent manner

Cn1c(=O)n(-c2ccc(C(C)(C)C#N)cc2)c2c3cc(-c4cnc5ccccc5c4)ccc3ncc21 [BEZ235, reference compound]
tumor growth inhibition (TGI) ([6]; 60 mg/kg oral daily): 39%

CC(C)(C)c1nc(-c2cccc(NS(=O)(=O)c3c(F)cccc3F)c2F)c(-c2ccnc(N)n2)s1 [dabrafenib]
resistance factor (RF) [2]: 839.2 | resistance factor (RF) [3]: 61.0

CC(=O)Nc1cccc(-n2c(=O)n(C3CC3)c(=O)c3c(Nc4ccc(I)cc4F)n(C)c(=O)c(C)c32)c1 [trametinib]
resistance factor (RF) [2]: 45.1 | resistance factor (RF) [3]: 39.8
